Positions of bridges follow the written chain, without caps; N, C: chain ends. Non-standard residues stand in square brackets, D forms with d. Residues, ends and D or L forms follow the SMILES beside them. Abu = CC[C@H](N)C(=O)O
Molecular target: Complement C3 (Homo sapiens, UniProt P01024)
Assay: Inhibitory concentration for human complement component C3 activation

Complement C3, sequence (P01024 23-667 limits assumed): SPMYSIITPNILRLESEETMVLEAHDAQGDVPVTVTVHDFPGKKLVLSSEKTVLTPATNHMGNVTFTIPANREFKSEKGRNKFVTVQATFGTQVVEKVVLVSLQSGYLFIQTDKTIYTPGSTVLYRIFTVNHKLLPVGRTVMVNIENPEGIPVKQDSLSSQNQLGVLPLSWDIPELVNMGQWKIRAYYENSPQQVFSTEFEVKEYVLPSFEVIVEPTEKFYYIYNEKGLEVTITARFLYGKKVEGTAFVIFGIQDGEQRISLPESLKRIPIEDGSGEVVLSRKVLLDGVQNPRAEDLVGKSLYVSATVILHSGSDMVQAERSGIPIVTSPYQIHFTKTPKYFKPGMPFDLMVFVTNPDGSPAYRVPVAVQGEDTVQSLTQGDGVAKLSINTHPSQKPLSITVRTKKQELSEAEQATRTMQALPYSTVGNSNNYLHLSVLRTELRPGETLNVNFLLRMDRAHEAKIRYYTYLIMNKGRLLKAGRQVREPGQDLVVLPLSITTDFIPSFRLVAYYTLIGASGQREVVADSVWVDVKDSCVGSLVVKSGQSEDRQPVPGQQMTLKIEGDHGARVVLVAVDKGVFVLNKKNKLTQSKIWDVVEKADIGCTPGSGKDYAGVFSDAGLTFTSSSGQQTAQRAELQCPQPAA
Complement C3, sequence (P01024 672-1663 limits assumed): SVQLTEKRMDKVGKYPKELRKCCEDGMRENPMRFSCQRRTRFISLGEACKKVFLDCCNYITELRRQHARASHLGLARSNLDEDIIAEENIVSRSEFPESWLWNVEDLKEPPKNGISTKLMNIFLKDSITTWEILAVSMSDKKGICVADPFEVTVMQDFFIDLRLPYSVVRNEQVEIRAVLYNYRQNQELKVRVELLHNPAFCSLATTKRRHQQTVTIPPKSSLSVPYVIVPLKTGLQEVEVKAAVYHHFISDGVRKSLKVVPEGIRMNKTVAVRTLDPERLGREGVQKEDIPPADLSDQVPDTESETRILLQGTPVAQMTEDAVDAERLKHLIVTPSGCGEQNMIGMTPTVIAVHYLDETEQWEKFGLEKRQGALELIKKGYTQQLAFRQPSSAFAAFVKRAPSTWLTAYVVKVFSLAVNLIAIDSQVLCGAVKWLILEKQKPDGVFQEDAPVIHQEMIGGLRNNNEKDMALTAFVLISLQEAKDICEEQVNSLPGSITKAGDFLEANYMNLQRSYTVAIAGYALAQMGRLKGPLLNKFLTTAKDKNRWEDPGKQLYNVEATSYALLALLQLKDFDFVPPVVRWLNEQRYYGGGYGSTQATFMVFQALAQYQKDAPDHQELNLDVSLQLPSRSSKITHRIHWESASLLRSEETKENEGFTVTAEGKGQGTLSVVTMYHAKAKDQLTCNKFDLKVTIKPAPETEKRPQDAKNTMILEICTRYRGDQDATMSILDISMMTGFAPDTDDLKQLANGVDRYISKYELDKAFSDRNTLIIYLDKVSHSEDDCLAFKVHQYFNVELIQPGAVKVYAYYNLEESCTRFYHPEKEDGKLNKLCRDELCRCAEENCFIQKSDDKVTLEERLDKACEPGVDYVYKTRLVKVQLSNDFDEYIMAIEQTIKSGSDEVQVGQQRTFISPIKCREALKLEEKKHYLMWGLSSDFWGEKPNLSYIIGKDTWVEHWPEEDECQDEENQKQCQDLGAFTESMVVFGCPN

| IC50 | SMILES |
| --- | --- |
| > 1000 µM | CC[C@H](C)[C@H](NC(=O)[C@@H]1CSSC[C@H](NC(=O)[C@@H](NC(C)=O)[C@@H](C)CC)C(=O)N[C@@H](C(C)C)C(=O)N[C@H](Cc2ccc(O)cc2)C(=O)N[C@@H](CCC(N)=O)C(=O)N[C@@H](CC(=O)O)C(=O)N[C@@H](Cc2c[nH]c3ccccc23)C(=O)NCC(=O)N[C@@H](C)C(=O)N[C@@H](Cc2c[nH]cn2)C(=O)N[C@@H](CCCN=C(N)N)C(=O)N1)C(N)=O |
| 1.5 µM | CC[C@@H]1NC(=O)CNC(=O)[C@H](Cc2c[nH]c3ccccc23)NC(=O)[C@H](CC(=O)O)NC(=O)[C@H](CCC(N)=O)NC(=O)[C@H](Cc2c[nH]c3ccccc23)NC(=O)[C@H](C(C)C)NC(=O)[C@@H](NC(=O)[C@@H](NC(C)=O)[C@@H](C)CC)CSSC[C@@H](C(=O)N[C@H](C(N)=O)[C@@H](C)O)NC(=O)[C@H](CCCN=C(N)N)NC(=O)[C@H](Cc2c[nH]cn2)NC1=O (Ac-ICVWQDWG[Abu]HRCT-NH2; disulfide 2-12) |
| 2.2 µM | CC[C@H](C)[C@H](NC(C)=O)C(=O)N[C@H]1CSSC[C@@H](C(=O)N[C@H](C(N)=O)[C@@H](C)O)NC(=O)[C@H](CCCNC(=N)N)NC(=O)[C@H](Cc2cnc[nH]2)NC(=O)[C@H](Cc2cnc[nH]2)NC(=O)CNC(=O)[C@H](Cc2c[nH]c3ccccc23)NC(=O)[C@H](CC(=O)O)NC(=O)[C@H](CCC(N)=O)NC(=O)[C@H](Cc2c[nH]c3ccccc23)NC(=O)[C@H](C(C)C)NC1=O |

Source: ChEMBL document CHEMBL1139489, “Design and NMR characterization of active analogues of compstatin containing non-natural amino acids” (J Med Chem, 2005)
